Drawing on the kinase profiling compilation of Christmann-Franck et al. (2016), this text covers residual activity for four compounds.

Several values for one entry are separate records, joined by “and”; a condition that tells them apart may be missing. Identical values can stand only once.

The residual activity is the signal under treatment as a percentage of the control signal.

NEK9 (human), sequence (Q8TD19 whole entry, looked up): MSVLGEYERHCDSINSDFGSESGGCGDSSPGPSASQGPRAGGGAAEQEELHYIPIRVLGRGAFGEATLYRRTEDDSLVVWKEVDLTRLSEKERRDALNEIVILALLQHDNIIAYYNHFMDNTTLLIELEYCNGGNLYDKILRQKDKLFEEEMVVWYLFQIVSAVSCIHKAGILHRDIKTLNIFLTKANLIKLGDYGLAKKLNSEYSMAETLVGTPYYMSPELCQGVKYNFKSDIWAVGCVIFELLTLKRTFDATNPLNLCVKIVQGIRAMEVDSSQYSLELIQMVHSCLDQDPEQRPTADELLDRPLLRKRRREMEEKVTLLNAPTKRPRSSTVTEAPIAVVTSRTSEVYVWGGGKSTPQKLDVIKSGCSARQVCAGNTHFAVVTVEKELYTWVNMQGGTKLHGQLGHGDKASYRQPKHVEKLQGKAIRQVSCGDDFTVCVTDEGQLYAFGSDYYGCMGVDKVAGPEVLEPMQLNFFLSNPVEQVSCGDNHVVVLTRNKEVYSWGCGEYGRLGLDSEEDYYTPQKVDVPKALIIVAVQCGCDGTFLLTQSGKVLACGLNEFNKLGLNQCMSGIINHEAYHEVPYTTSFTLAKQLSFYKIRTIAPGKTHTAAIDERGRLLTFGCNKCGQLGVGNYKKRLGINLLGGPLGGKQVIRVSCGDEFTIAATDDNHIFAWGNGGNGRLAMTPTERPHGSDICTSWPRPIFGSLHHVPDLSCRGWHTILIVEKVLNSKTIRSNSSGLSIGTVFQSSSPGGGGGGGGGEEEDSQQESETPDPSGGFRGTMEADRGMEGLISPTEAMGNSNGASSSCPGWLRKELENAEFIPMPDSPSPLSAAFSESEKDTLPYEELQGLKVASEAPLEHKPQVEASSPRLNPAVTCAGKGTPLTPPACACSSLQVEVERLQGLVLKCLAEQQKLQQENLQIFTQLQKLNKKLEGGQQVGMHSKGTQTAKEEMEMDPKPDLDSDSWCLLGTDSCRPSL
OXSR1 (human), sequence (O95747 whole entry, looked up): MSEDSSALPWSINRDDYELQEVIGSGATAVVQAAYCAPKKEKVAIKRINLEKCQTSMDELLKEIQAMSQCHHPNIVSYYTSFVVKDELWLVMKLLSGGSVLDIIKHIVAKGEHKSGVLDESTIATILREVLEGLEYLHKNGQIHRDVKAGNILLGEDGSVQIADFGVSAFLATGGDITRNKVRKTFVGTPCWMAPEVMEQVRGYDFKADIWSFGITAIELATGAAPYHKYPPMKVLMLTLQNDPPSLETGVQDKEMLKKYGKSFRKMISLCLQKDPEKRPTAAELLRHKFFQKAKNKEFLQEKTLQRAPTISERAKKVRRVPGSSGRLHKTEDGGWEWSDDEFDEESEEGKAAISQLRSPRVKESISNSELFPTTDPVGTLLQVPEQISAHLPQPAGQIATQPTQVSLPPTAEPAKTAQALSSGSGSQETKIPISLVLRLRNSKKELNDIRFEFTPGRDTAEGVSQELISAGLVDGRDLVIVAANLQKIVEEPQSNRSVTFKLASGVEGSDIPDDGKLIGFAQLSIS
RPS6KA3 KD1 KD2 (human), sequence (P51812 whole entry, looked up): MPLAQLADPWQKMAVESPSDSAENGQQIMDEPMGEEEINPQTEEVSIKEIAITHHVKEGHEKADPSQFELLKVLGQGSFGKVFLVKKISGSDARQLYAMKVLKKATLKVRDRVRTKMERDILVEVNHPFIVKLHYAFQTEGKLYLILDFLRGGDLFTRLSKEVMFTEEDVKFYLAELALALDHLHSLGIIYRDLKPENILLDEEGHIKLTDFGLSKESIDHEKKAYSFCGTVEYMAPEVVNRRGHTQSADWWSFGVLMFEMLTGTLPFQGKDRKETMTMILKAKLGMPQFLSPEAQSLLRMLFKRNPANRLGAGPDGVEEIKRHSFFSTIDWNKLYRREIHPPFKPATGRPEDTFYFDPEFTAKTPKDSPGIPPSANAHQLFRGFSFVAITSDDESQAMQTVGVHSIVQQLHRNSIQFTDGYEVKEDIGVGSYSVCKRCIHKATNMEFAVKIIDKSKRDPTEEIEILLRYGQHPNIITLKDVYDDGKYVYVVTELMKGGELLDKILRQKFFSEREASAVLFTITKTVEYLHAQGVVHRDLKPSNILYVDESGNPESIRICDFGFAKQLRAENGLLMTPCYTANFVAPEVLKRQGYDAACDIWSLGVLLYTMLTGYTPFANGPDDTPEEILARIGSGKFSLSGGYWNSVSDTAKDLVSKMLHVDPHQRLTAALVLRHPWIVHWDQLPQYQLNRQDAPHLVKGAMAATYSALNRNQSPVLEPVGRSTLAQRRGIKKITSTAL
MARK3 (human), sequence (P27448 whole entry, looked up): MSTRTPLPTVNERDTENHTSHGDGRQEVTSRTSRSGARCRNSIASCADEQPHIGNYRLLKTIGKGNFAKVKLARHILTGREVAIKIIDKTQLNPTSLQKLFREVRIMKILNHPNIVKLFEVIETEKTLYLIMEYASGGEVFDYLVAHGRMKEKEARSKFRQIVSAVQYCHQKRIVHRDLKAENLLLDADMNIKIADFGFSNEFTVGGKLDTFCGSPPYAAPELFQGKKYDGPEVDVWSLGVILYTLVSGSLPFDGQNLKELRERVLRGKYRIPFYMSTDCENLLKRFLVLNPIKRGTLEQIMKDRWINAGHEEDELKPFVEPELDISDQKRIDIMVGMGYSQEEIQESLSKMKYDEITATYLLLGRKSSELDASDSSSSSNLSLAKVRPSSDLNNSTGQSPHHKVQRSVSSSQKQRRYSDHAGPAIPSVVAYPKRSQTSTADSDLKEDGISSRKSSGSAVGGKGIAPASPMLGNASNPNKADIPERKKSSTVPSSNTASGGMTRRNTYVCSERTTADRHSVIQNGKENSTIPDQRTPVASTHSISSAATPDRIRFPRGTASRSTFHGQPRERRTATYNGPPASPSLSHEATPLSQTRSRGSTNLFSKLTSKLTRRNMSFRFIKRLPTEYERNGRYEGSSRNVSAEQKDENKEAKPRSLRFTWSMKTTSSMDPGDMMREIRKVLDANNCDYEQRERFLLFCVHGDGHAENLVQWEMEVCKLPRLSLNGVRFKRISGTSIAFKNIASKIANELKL
RIPK2 (human), sequence (O43353 whole entry, looked up): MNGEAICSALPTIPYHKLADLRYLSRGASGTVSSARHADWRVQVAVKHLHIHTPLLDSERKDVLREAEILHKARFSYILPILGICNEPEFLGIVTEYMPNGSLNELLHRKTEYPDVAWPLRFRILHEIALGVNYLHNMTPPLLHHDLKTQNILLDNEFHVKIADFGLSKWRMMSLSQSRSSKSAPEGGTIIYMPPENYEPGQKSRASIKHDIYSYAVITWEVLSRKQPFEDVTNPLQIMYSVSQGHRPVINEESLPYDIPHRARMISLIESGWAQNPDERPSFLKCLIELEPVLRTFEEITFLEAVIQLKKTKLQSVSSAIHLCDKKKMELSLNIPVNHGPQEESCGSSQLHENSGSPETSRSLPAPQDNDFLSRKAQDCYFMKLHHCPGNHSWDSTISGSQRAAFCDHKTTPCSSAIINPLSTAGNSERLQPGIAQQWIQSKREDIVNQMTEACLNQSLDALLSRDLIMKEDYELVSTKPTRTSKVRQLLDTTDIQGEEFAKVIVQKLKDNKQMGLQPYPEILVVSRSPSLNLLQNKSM

The target in one test is MAP3K14 (human) (UniProt Q99558). In words: radiometric filter-binding kinase assay, Kinase HotSpot. Particulars: compound 0.5 µM; ATP 10 µM.
Regarding `O=C(Nc1cccc(Nc2cc(Nc3cccc(C(F)(F)F)c3)ncn2)c1)C1CC1`, the residual activity stood at 77.9%.
For the compound `O=C1NC(=O)C(c2c[nH]c3ccccc23)=C1c1c[nH]c2ccccc12`, the residual activity turned out to be 91%.

The target of the next test is MAP3K2 (human) (UniProt Q9Y2U5). Described as above. Conditions: compound 0.5 µM; ATP 10 µM.
Regarding `Cn1cnc2cc3c(Nc4cccc(Br)c4)ncnc3cc21`, the residual activity was 97.6%.
Still for that read-out and setting: the figure for `O=C1Nc2ccccc2/C1=C1\Nc2ccccc2\C1=N/O` is 94.6%; for `O=C(Nc1cccc(Nc2cc(Nc3cccc(C(F)(F)F)c3)ncn2)c1)C1CC1` it is 91.8%; for `O=C1NC(=O)C(c2c[nH]c3ccccc23)=C1c1c[nH]c2ccccc12` it is 107%.

The next test deals with MAPK11 (human) (UniProt Q15759). The description is as above. Particulars: compound 0.5 µM; ATP 10 µM.
MAPK11 (human), sequence (Q15759 whole entry, looked up): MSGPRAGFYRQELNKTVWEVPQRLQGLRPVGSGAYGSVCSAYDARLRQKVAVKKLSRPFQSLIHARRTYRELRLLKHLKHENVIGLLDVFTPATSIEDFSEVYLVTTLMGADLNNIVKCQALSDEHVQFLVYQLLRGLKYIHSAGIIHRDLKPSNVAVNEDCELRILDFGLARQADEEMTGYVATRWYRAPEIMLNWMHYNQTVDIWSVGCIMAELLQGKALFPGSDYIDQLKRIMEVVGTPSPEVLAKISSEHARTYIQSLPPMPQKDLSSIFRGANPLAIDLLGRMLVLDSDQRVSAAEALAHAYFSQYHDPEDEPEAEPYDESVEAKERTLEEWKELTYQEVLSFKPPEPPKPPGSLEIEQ
For `Cn1cnc2cc3c(Nc4cccc(Br)c4)ncnc3cc21`, the residual activity came out at 85.9%.
Still for that read-out and setting: the figure for `O=C1Nc2ccccc2/C1=C1\Nc2ccccc2\C1=N/O` is 92.9%; for `O=C(Nc1cccc(Nc2cc(Nc3cccc(C(F)(F)F)c3)ncn2)c1)C1CC1` it is 97.2%.
`O=C1NC(=O)C(c2c[nH]c3ccccc23)=C1c1c[nH]c2ccccc12`: the residual activity was 89%.

A further test has as its target MARK3 (human) (UniProt P27448). Described as above. Particulars: compound 0.5 µM; ATP 10 µM.
On to `Cn1cnc2cc3c(Nc4cccc(Br)c4)ncnc3cc21`, for which the residual activity was found to be 104%.
Regarding `O=C1Nc2ccccc2/C1=C1\Nc2ccccc2\C1=N/O`, the residual activity worked out at 85.8%.
Turning to `O=C(Nc1cccc(Nc2cc(Nc3cccc(C(F)(F)F)c3)ncn2)c1)C1CC1`, the residual activity came out at 105%.
Same read-out and setting: the figure for `O=C1NC(=O)C(c2c[nH]c3ccccc23)=C1c1c[nH]c2ccccc12` is 98.5%.

A further test deals with MELK (human) (UniProt Q14680). The description is as above. Conditions: compound 0.5 µM; ATP 10 µM.
`Cn1cnc2cc3c(Nc4cccc(Br)c4)ncnc3cc21`: the residual activity is 89%.
On the same count and under the same terms, the figure for `O=C1Nc2ccccc2/C1=C1\Nc2ccccc2\C1=N/O` is 33.3%.
For `O=C(Nc1cccc(Nc2cc(Nc3cccc(C(F)(F)F)c3)ncn2)c1)C1CC1`, the residual activity was 104%.
On the same count and under the same terms, the figure for `O=C1NC(=O)C(c2c[nH]c3ccccc23)=C1c1c[nH]c2ccccc12` is 82%.

The next test concerns the target NEK9 (human) (UniProt Q8TD19). Described as above. Particulars: compound 0.5 µM; ATP 10 µM.
For `Cn1cnc2cc3c(Nc4cccc(Br)c4)ncnc3cc21`, the residual activity worked out at 90%.
For the compound `O=C1Nc2ccccc2/C1=C1\Nc2ccccc2\C1=N/O`, the residual activity is 95.4%.
For `O=C(Nc1cccc(Nc2cc(Nc3cccc(C(F)(F)F)c3)ncn2)c1)C1CC1`, the residual activity worked out at 101%.
For `O=C1NC(=O)C(c2c[nH]c3ccccc23)=C1c1c[nH]c2ccccc12`, the residual activity worked out at 97.3%.

A further test has as its target OXSR1 (human) (UniProt O95747). The test is described as above. Particulars: compound 0.5 µM; ATP 10 µM.
In the case of `Cn1cnc2cc3c(Nc4cccc(Br)c4)ncnc3cc21`, the residual activity was determined as 94.6%.
`O=C1Nc2ccccc2/C1=C1\Nc2ccccc2\C1=N/O`: the residual activity came to 91.7%.
Turning to `O=C(Nc1cccc(Nc2cc(Nc3cccc(C(F)(F)F)c3)ncn2)c1)C1CC1`, the residual activity turned out to be 110%.
Regarding `O=C1NC(=O)C(c2c[nH]c3ccccc23)=C1c1c[nH]c2ccccc12`, the residual activity worked out at 86.3%.

In another test the target is PAK2 (human) (UniProt Q13177). The test is described as above. Particulars: compound 0.5 µM; ATP 10 µM.
Turning to `Cn1cnc2cc3c(Nc4cccc(Br)c4)ncnc3cc21`, the residual activity turned out to be 99.8%.
The same measure, in the same setting: the figure for `O=C1Nc2ccccc2/C1=C1\Nc2ccccc2\C1=N/O` is 96.7%; for `O=C(Nc1cccc(Nc2cc(Nc3cccc(C(F)(F)F)c3)ncn2)c1)C1CC1` it is 103%; for `O=C1NC(=O)C(c2c[nH]c3ccccc23)=C1c1c[nH]c2ccccc12` it is 97%.

A further test addresses PDGFRA (human) (UniProt P16234). Described as above. Particulars: compound 0.5 µM; ATP 10 µM.
As for `Cn1cnc2cc3c(Nc4cccc(Br)c4)ncnc3cc21`, the residual activity came out at 107%.
Same read-out and setting: the figure for `O=C1Nc2ccccc2/C1=C1\Nc2ccccc2\C1=N/O` is 90.9%; for `O=C(Nc1cccc(Nc2cc(Nc3cccc(C(F)(F)F)c3)ncn2)c1)C1CC1` it is 86.4%; for `O=C1NC(=O)C(c2c[nH]c3ccccc23)=C1c1c[nH]c2ccccc12` it is 90.6%.

The target of another test is PLK2 (human) (UniProt Q9NYY3). Described as above. Conditions: compound 0.5 µM; ATP 10 µM.
With `Cn1cnc2cc3c(Nc4cccc(Br)c4)ncnc3cc21`, the residual activity was determined as 101%.
The same measure, in the same setting: the figure for `O=C1Nc2ccccc2/C1=C1\Nc2ccccc2\C1=N/O` is 106%; for `O=C(Nc1cccc(Nc2cc(Nc3cccc(C(F)(F)F)c3)ncn2)c1)C1CC1` it is 109%; for `O=C1NC(=O)C(c2c[nH]c3ccccc23)=C1c1c[nH]c2ccccc12` it is 97.7%.

A further test deals with PLK3 (human) (UniProt Q9H4B4). The test is described as above. Conditions: compound 0.5 µM; ATP 10 µM.
PLK3 (human), sequence (Q9H4B4 whole entry, looked up): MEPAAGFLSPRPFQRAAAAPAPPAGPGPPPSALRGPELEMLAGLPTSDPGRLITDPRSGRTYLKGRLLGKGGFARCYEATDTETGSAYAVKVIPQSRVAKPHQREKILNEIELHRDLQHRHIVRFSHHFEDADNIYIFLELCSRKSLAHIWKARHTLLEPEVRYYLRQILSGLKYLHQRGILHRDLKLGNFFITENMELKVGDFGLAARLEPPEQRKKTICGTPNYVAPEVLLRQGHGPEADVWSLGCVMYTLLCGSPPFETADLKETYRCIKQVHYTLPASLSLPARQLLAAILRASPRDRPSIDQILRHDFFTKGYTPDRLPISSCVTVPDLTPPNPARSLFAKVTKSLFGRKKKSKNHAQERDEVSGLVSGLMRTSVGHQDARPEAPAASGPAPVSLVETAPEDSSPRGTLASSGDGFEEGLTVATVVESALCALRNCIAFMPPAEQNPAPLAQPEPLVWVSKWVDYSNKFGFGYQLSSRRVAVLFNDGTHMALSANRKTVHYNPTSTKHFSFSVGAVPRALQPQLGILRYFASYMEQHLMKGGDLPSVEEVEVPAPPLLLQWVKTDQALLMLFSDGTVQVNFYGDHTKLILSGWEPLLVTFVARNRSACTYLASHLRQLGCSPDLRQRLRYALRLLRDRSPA
In the case of `Cn1cnc2cc3c(Nc4cccc(Br)c4)ncnc3cc21`, the residual activity came out at 99.8%.
For `O=C1Nc2ccccc2/C1=C1\Nc2ccccc2\C1=N/O`, the residual activity was found to be 93%.
For the compound `O=C(Nc1cccc(Nc2cc(Nc3cccc(C(F)(F)F)c3)ncn2)c1)C1CC1`, the residual activity amounted to 99.1%.
Regarding `O=C1NC(=O)C(c2c[nH]c3ccccc23)=C1c1c[nH]c2ccccc12`, the residual activity was 99.9%.

In a further test the target is PRKCB2 (human) (UniProt P05771). The description is as above. Particulars: compound 0.5 µM; ATP 10 µM.
In the case of `Cn1cnc2cc3c(Nc4cccc(Br)c4)ncnc3cc21`, the residual activity was 95.4%.
For the compound `O=C1Nc2ccccc2/C1=C1\Nc2ccccc2\C1=N/O`, the residual activity is 101%.
On the same count and under the same terms, the figure for `O=C(Nc1cccc(Nc2cc(Nc3cccc(C(F)(F)F)c3)ncn2)c1)C1CC1` is 107%; for `O=C1NC(=O)C(c2c[nH]c3ccccc23)=C1c1c[nH]c2ccccc12` it is 42.9%.

The target of a further test is PRKCH (human) (UniProt P24723). The test is described as above. Particulars: compound 0.5 µM; ATP 10 µM.
For `Cn1cnc2cc3c(Nc4cccc(Br)c4)ncnc3cc21`, the residual activity came to 81.2%.
In the case of `O=C1Nc2ccccc2/C1=C1\Nc2ccccc2\C1=N/O`, the residual activity amounted to 74.4%.
For the compound `O=C(Nc1cccc(Nc2cc(Nc3cccc(C(F)(F)F)c3)ncn2)c1)C1CC1`, the residual activity was found to be 88.2%.
With `O=C1NC(=O)C(c2c[nH]c3ccccc23)=C1c1c[nH]c2ccccc12`, the residual activity was determined as 42%.

The target of a further test is PRKG1 (human) (UniProt Q13976). The description is as above. Particulars: compound 0.5 µM; ATP 10 µM.
On to `Cn1cnc2cc3c(Nc4cccc(Br)c4)ncnc3cc21`, for which the residual activity was 97.8% and 98%.
As for `O=C1Nc2ccccc2/C1=C1\Nc2ccccc2\C1=N/O`, the residual activity was 86% and 90.1%.
Same read-out and setting: the figure for `O=C(Nc1cccc(Nc2cc(Nc3cccc(C(F)(F)F)c3)ncn2)c1)C1CC1` is 90.6% and 96.4%.
Regarding `O=C1NC(=O)C(c2c[nH]c3ccccc23)=C1c1c[nH]c2ccccc12`, the residual activity is 76.8% and 82.4%.

Another test addresses RIPK2 (human) (UniProt O43353). Described as above. Conditions: compound 0.5 µM; ATP 10 µM.
As to `Cn1cnc2cc3c(Nc4cccc(Br)c4)ncnc3cc21`, the residual activity amounted to 35.6%.
Turning to `O=C1Nc2ccccc2/C1=C1\Nc2ccccc2\C1=N/O`, the residual activity was found to be 72.3%.
Turning to `O=C(Nc1cccc(Nc2cc(Nc3cccc(C(F)(F)F)c3)ncn2)c1)C1CC1`, the residual activity is 80.8%.
Same read-out and setting: the figure for `O=C1NC(=O)C(c2c[nH]c3ccccc23)=C1c1c[nH]c2ccccc12` is 97%.

Another test addresses RPS6KA3 KD1 KD2 (human) (UniProt P51812). The test is described as above. Conditions: compound 0.5 µM; ATP 10 µM.
Take `Cn1cnc2cc3c(Nc4cccc(Br)c4)ncnc3cc21`: the residual activity was found to be 105%.
`O=C1Nc2ccccc2/C1=C1\Nc2ccccc2\C1=N/O`: the residual activity came out at 61.4%.
Consider `O=C(Nc1cccc(Nc2cc(Nc3cccc(C(F)(F)F)c3)ncn2)c1)C1CC1`, for which the residual activity came out at 105%.
Regarding `O=C1NC(=O)C(c2c[nH]c3ccccc23)=C1c1c[nH]c2ccccc12`, the residual activity stood at 46.7%.

The target of the next test is SYK (human) (UniProt P43405). The description is as above. Conditions: compound 0.5 µM; ATP 10 µM.
For the compound `Cn1cnc2cc3c(Nc4cccc(Br)c4)ncnc3cc21`, the residual activity was 98.5%.
Turning to `O=C1Nc2ccccc2/C1=C1\Nc2ccccc2\C1=N/O`, the residual activity amounted to 58.5%.
On to `O=C(Nc1cccc(Nc2cc(Nc3cccc(C(F)(F)F)c3)ncn2)c1)C1CC1`, for which the residual activity came out at 94.9%.
The same measure, in the same setting: the figure for `O=C1NC(=O)C(c2c[nH]c3ccccc23)=C1c1c[nH]c2ccccc12` is 103%.

The target in another test is VRK1 (human) (UniProt Q99986). The test is described as above. Particulars: compound 0.5 µM; ATP 10 µM.
VRK1 (human), sequence (Q99986 whole entry, looked up): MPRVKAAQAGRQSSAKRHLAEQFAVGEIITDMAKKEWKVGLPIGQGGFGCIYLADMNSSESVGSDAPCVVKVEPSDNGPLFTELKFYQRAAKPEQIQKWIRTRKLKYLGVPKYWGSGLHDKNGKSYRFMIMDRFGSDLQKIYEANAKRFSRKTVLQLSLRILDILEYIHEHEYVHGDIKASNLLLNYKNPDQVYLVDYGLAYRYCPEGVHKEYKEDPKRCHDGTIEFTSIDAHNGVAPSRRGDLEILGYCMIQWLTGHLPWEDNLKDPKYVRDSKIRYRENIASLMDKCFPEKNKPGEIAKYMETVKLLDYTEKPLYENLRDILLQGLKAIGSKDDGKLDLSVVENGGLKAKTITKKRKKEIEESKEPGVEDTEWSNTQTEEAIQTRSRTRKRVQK
Turning to `Cn1cnc2cc3c(Nc4cccc(Br)c4)ncnc3cc21`, the residual activity came to 100%.
Consider `O=C1Nc2ccccc2/C1=C1\Nc2ccccc2\C1=N/O`, for which the residual activity turned out to be 86.3%.
As to `O=C(Nc1cccc(Nc2cc(Nc3cccc(C(F)(F)F)c3)ncn2)c1)C1CC1`, the residual activity was determined as 94%.
Same read-out and setting: the figure for `O=C1NC(=O)C(c2c[nH]c3ccccc23)=C1c1c[nH]c2ccccc12` is 109%.
